A short description of series [1]: In vivo bioavailability experiment in mice (pharmacokinetics). Particulars: ICR mice; for clearance / half-life / MRT / Vd / bioavailability: mouse, plasma; for MRT: read-out: Mean residence time; for Vd: read-out: Steady-state volume of distribution. Here is the method: Experimental Animals: ICR mice, weighing 20 grams, provided by Sino-British SIPPR Lab Animal Ltd, Shanghai. The compound to be tested was accurately weighed and dissolved in DMSO to prepare a stock solution with a concentration of 15 mg/mL. The compound stock solution was accurately measured and diluted with 0.9% saline and Solutol in a ratio of 8.8:1 to a concentration of 0.3 mg/mL. The solution was clear and transparent, used for intravenous administration. Additionally, the compound was accurately weighed and mixed with 0.5% CMC-Na to a concentration of 0.5 mg/mL, used for oral gavage administration. Intravenous group: Three ICR mice, weighing 20 g+2 g, were intravenously administered the intravenous dosing solution. The dosing volume was 10 mL/kg, with a dose of 3 mg/kg. Blood samples (0.03 mL) were collected from the fundus vein of the mice at pre-dose and at 2, 15, 30, 60, 120, 240, 480, and 1440 minutes post-dose. Oral gavage group: Three ICR mice, weighing 20 g+2 g, were administered the oral gavage dosing solution. The dosing volume was 20 mL/kg, with doses of 10 mg/kg and 30 mg/kg. Blood samples (0.03 mL) were collected from the fundus vein of the mice at pre-dose and at 5, 15, 30, 60, 120, 240, 480, and 1440 minutes post-dose. The blood samples were centrifuged at 6800 g for 6 minutes at 2-8° C. The plasma was collected and stored in centrifuge tubes at -70° C. for later analysis. A 19 μL aliquot of blank mouse plasma was taken, and 1 μL of the standard curve working solution was added to prepare a series of concentration samples at 1, 0.5, 0.2, 0.1, 0.05, 0.01, 0.005, and 0.001 μg/mL. The mixture was vortexed and mixed well, and 400 μL of methanol containing an internal standard (Warfarin, 100 ng/mL) was added to precipitate the proteins. The mixture was vortexed and shaken for 1 minute, centrifuged at 18000 g for 7 minutes at 4° C., and the supernatant was transferred to a 96-well plate for injection. A 20 μL aliquot of the plasma sample was mixed with 400 μL of methanol containing an internal standard (Warfarin, 100 ng/mL) to precipitate the proteins. The mixture was vortexed for 10 minutes, centrifuged at 18000 g for 7 minutes at 4° C., and 400 μL of the supernatant was transferred to a 96-well plate for a 10 μL injection. Liquid chromatography system: Acquity UPLC system (including a binary solvent manager, sample manager, column heater, and degasser) from Waters Corporation, USA. MS/MS system: QTRAP® 6500+ triple quadrupole mass spectrometer equipped with an electrospray ionization (ESI) source from Sciex Corporation, USA. Analytical column: BEH C18 column, 1.7 μm, 50×2.1 mm I.D., from Waters Corporation, USA. Flow rate: 0.60 mL/min; injection volume: 10 μL; column temperature: 40° C. The gradient elution program used was as follows: The ion source was an electrospray ionization source (Turbo Ionspray, ESI); the ion spray voltage was […]; the temperature was 500° C.; the ion source gas 1 (N2) pressure was 50 psi; the ion source gas 2 (N2) pressure was 50 psi; the curtain gas (N2) pressure was 20 psi; the collision gas pressure (CAD) was Medium; detection was performed in positive ion mode; the scan type was multiple reaction monitoring (MRM).

Series [2] concerns the target GTP-KRAS-G12D:SOS1 (Homo sapiens (Human), UniProt P01116, G12D). The series can be described thus: GTP-KRAS-G12D:SOS1 binding inhibition. As for the experimental part:
The IC50 of the compounds was fitted using a nonlinear regression equation with GraphPad Prism 8. The results are presented in Table 2: • Negative control: DMSO • Positive control: 100 μM BI-2852
The following nonlinear fitting formula was used to obtain the IC50 (half-maximal inhibitory concentration) of the compounds:
[formula] • X: logarithm of the compound concentration • Y: 665/615 Ratio

The mark [3] stands for this setting: intravenous injection, dose 3 (3 mg/kg in method).
Setting [4] is: oral, dose 30 (30 mg/kg in method).

pIC50: −log10 of the molar value. Where a name gives a salt, the structure may show the parent alone. Read-outs that look alike come from different tables or passages of the source. Marks after values point to notes of the source that are not given here.

Sequence of GTP-KRAS-G12D:SOS1 (P01116-2 other isoform, or with tags, fused parts or gaps G12D): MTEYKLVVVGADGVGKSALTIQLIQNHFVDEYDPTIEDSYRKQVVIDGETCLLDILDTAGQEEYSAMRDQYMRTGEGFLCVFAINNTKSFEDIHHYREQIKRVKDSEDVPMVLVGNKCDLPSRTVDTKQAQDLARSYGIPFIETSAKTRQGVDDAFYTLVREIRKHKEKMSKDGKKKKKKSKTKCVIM

In general, clearance refers to the volume of plasma or blood freed of the substance per unit of time. Read a low clearance as inefficient removal. As usually defined, the half-life is the time in which the quantity being followed falls by half. Low readings indicate rapid decline, high ones slow decline. By bioavailability is commonly meant the share of a dose that reaches the circulation, judged against a reference dose that is usually intravenous. Broadly, the pIC50 is the negative decadic logarithm of the IC50, by convention in mol/L. As for `CCc1cccc2cc(O)cc(-c3c(F)c4c5c(nc(OC[C@@]67CCCN6C[C@H](F)C7)nc5c3F)N3CC5CCC(N5)C3CCO4)c12` (single isomer, unassigned) [13a′, 4-((2S or 2R,6aS,7S,10R)-1,3-Difluoro-14-(((2R,7aS)-2-fluorotetrahydro-1H-pyrrolizin-7a(5H)-yl)methoxy)-5,6,6a,7,8,9,10,11-octahydro-7,10-epiminoazepino[1′,2′: 5,6][1,5]oxazocino[4,3,2-de]quinazolin-2-yl)-5-ethylnaphthalen-2-ol], in series [1] (setting [3]), the Area under curve was 2062.35 (h) * (ng/mL), the Maximum plasma concentration stood at 3563.93 ng/mL, the clearance was 6.5 mL/min/kg and the half-life was 15.9 h. Further, in series [1] (setting [3]), the MRT was determined as 4.73 h and the Vd is 5.33 L/kg. For the same compound, in series [1] (setting [4]), the Area under curve was 3091.66 (h) * (ng/mL), the Maximum plasma concentration is 781.43 ng/mL, the bioavailability was found to be 15% and the half-life is 4.68 h. Further, the MRT in series [1] (setting [4]) was 4.53 h. Also, in series [2], the pIC50 is 7.55.
On to `CCc1cccc2cc(O)cc(-c3c(F)c4c5c(nc(OC[C@]67C[C@@H](F)CN6C[C@@H](COC)C7)nc5c3F)N3CC5CCC(N5)C3CO4)c12` (single isomer, unassigned) [Compound 18b, 4-((2S or 2R,5aS,6S,9R)-1,3-difluoro-13-(((2R,6S,7aS)-2-fluoro-6-(methoxymethyl)tetrahydro-1H-pyrrolizin-7a(5H)-yl)methoxy)-5a,6,7,8,9,10-hexahydro-5H-6,9-epiminoazepino[2′,1′:3,4][1,4]oxazepino[5,6,7-de]quinazolin-2-yl)-5-ethylnaphthalen-2-ol dihydrochloride], for which, in series [1] (setting [3]), the Area under curve was 1944.73 (h) * (ng/mL), the Maximum plasma concentration was 7632.72 ng/mL, the clearance is 24.5 mL/min/kg and the half-life was 11.8 h. Further, in series [1] (setting [3]), the MRT was 1.41 h and the Vd was determined as 4.98 L/kg. Also, in series [1] (setting [4]), the Area under curve is given as 1904.95 (h) * (ng/mL), the Maximum plasma concentration amounted to 508.76 ng/mL, the bioavailability stood at 9.8% and the half-life is 3.57 h. The MRT in series [1] (setting [4]) was determined as 3.77 h. The compound also showed a pIC50 in series [2] of 8.12.
Turning to `CCc1cccc2cc(O)cc(-c3c(F)c4c5c(nc(OC[C@]67C[C@@H](F)CN6C[C@@H](CN6C[C@@H](C)O[C@@H](C)C6)C7)nc5c3F)N3CC5CCC(N5)C3CO4)c12` (single isomer, unassigned) [Compound 25b, 4-((2S or 2R)-13-(((2R,6R,7aS)-2-(((2R,6S)-2,6-dimethylmorpholino)methyl)-6-fluorotetrahydro-1H-pyrrolizin-7a(5H)-yl)methoxy)-1,3-difluoro-5a,6,7,8,9,10-hexahydro-5H-6,9-epiminoazepino[2′,1′:3,4][1,4]oxazepino[5,6,7-de]quinazolin-2-yl)-5-ethylnaphthalen-2-ol trihydrochloride], in series [1] (setting [3]), the Area under curve is 7940.26 (h) * (ng/mL), the Maximum plasma concentration came to 22039.3 ng/mL, the clearance was 6.33 mL/min/kg and the half-life is 12.2 h. In series [1] (setting [3]), the MRT turned out to be 1.01 h and the Vd was found to be 0.84 L/kg. For the same compound, in series [1] (setting [4]), the Area under curve is given as 2365.19 (h) * (ng/mL), the Maximum plasma concentration was 863.75 ng/mL, the bioavailability amounted to 2.98% and the half-life is 3.81 h. Further, in series [1] (setting [4]), the MRT was 3.15 h. Further, in series [2], the pIC50 was 8.17.
